Assay results from PubChem BioAssay (NCI).
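In this assay, cells in 96-well plates receive the compound at five concentrations for 48 hours. Endpoints are linearly interpolated between the surrounding concentrations. GI50 = concentration required for 50% inhibition of growth. TGI denotes the concentration required for complete inhibition of growth.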

What was measured:
Assay in all cases: inhibition of tumour cell growth, NCI panel, 48 h
ACHN renal = tested on: ACHN renal
HCC-2998 colon = tested on: HCC-2998 colon
HOP-62 NSCLC = tested on: HOP-62 NSCLC
HT29 colon = tested on: HT29 colon
MOLT-4 leukemia = tested on: MOLT-4 leukemia
NCI-H226 lung = tested on: NCI-H226 lung
SF-268 CNS = tested on: SF-268 CNS
SNB-75 CNS = tested on: SNB-75 CNS
OVCAR-5 ovarian = tested on: OVCAR-5 ovarian
CAKI-1 renal = tested on: CAKI-1 renal

`NC1C[C@H](n2cc(/C=C/Br)c(=O)[nH]c2=O)C[C@@H]1CO` (stereo not given in full) was tested, and the TGI (ACHN renal) was > 100 µM, the TGI (HCC-2998 colon) was > 100 µM and the TGI (HOP-62 NSCLC) was > 100 µM. The TGI (HT29 colon) was > 100 µM, the TGI (MOLT-4 leukemia) was > 100 µM and the TGI (NCI-H226 lung) was > 100 µM. The TGI (SF-268 CNS) was > 100 µM and the TGI (SNB-75 CNS) was > 100 µM.

`Nc1ccn(CCNCCn2cnc3nc(N)[nH]c(=O)c32)c(=O)n1` was tested, and the TGI (ACHN renal) was > 100 µM, the TGI (HCC-2998 colon) was > 100 µM and the TGI (HOP-62 NSCLC) was > 100 µM. The TGI (HT29 colon) was > 100 µM, the TGI (NCI-H226 lung) was > 100 µM and the TGI (OVCAR-5 ovarian) was > 100 µM. The TGI (SF-268 CNS) was > 100 µM.

`O=c1/c(=C/c2ccccc2F)sc2nc3ccccc3n12` was tested, and the TGI (ACHN renal) was > 100 µM, the TGI (CAKI-1 renal) was > 100 µM and the TGI (HCC-2998 colon) was > 100 µM. The TGI (HT29 colon) was > 100 µM, the TGI (MOLT-4 leukemia) was > 100 µM and the TGI (NCI-H226 lung) was > 100 µM. For the same compound, the TGI (OVCAR-5 ovarian) was > 100 µM, the TGI (SF-268 CNS) was > 100 µM and the TGI (SNB-75 CNS) was > 100 µM.

`COc1ccc(-c2ccc(/C=N/n3c(COc4ccc(Cl)cc4Cl)nn(CN4CCOCC4)c3=S)o2)c([N+](=O)[O-])c1` was tested, and the GI50 (ACHN renal) was 36.1 µM, the TGI (ACHN renal) was > 100 µM and the GI50 (CAKI-1 renal) was 22.7 µM. For the same compound, the TGI (CAKI-1 renal) was 67.4 µM, the GI50 (HCC-2998 colon) was 22.7 µM and the TGI (HCC-2998 colon) was 60.2 µM. For the same compound, the GI50 (HOP-62 NSCLC) was 35.9 µM, the TGI (HOP-62 NSCLC) was > 100 µM and the GI50 (HT29 colon) was 42 µM. For the same compound, the TGI (HT29 colon) was > 100 µM, the GI50 (MOLT-4 leukemia) was 19.4 µM and the TGI (MOLT-4 leukemia) was 63.3 µM. For the same compound, the GI50 (OVCAR-5 ovarian) was 38.8 µM, the TGI (OVCAR-5 ovarian) was > 100 µM and the GI50 (SF-268 CNS) was 28.6 µM. For the same compound, the TGI (SF-268 CNS) was > 100 µM.

For `CC1=C(Oc2ccccc2)C(CCC(=O)O)c2c(O)cc(Cl)c(O)c21` (stereo not given), the TGI (CAKI-1 renal) was > 100 µM, the TGI (HCC-2998 colon) was > 100 µM and the TGI (HOP-62 NSCLC) was > 100 µM. The TGI (MOLT-4 leukemia) was > 100 µM and the TGI (SF-268 CNS) was > 100 µM.

With `CCOc1ccc(NC(=O)C(=O)CC(=O)C2=C(C)Nc3ccccc3S2)cc1` the TGI (ACHN renal) was > 50 µM, the TGI (CAKI-1 renal) was > 50 µM and the TGI (HCC-2998 colon) was > 50 µM. The TGI (HOP-62 NSCLC) was > 50 µM, the TGI (HT29 colon) was > 50 µM and the TGI (MOLT-4 leukemia) was > 50 µM. For the same compound, the TGI (NCI-H226 lung) was > 50 µM, the TGI (OVCAR-5 ovarian) was > 50 µM and the TGI (SF-268 CNS) was > 50 µM.

Work on `COc1ccc(OC)c(/C=C2\SC(=S)NC2=O)c1` yielded a GI50 (ACHN renal) of 26.7 µM, a TGI (ACHN renal) of 95.1 µM and a GI50 (CAKI-1 renal) of 21.9 µM. The TGI (CAKI-1 renal) was 61.4 µM, the GI50 (HOP-62 NSCLC) was 30.9 µM and the TGI (HOP-62 NSCLC) was > 100 µM. For the same compound, the GI50 (HT29 colon) was 42.1 µM, the TGI (HT29 colon) was > 100 µM and the GI50 (MOLT-4 leukemia) was 44.8 µM. The TGI (MOLT-4 leukemia) was > 100 µM, the GI50 (OVCAR-5 ovarian) was 26.7 µM and the TGI (OVCAR-5 ovarian) was > 100 µM. The GI50 (SF-268 CNS) was 31.4 µM, the TGI (SF-268 CNS) was > 100 µM and the GI50 (SNB-75 CNS) was 29.3 µM. The TGI (SNB-75 CNS) was > 100 µM.

With `COc1ccc(-c2nc3sc4c(c3c(=O)[nH]2)CCCCCC4)cc1` the GI50 (ACHN renal) was 2.3 µM, the TGI (ACHN renal) was > 33.2 µM and the GI50 (CAKI-1 renal) was > 33.2 µM. For the same compound, the TGI (CAKI-1 renal) was > 33.2 µM, the GI50 (HCC-2998 colon) was > 33.2 µM and the TGI (HCC-2998 colon) was > 33.2 µM. The GI50 (HOP-62 NSCLC) was 1.87 µM, the TGI (HOP-62 NSCLC) was > 33.2 µM and the GI50 (MOLT-4 leukemia) was 31.6 µM. The TGI (MOLT-4 leukemia) was > 33.2 µM, the GI50 (NCI-H226 lung) was 8.17 µM and the TGI (NCI-H226 lung) was > 33.2 µM. The GI50 (OVCAR-5 ovarian) was > 33.2 µM, the TGI (OVCAR-5 ovarian) was > 33.2 µM and the GI50 (SF-268 CNS) was 13.9 µM. The TGI (SF-268 CNS) was > 33.2 µM, the GI50 (SNB-75 CNS) was 2.2 µM and the TGI (SNB-75 CNS) was 16.5 µM.

In the case of `C[C@@H]1C[C@H]2CC[C@H](O2)[C@H](C)C(=O)O[C@@H](C)C[C@@H]2CC[C@@H](O2)[C@@H](C)C(=O)O[C@H](C)C[C@H]2CC[C@H](O2)[C@H](C)C(=O)O[C@@H](C)C[C@@H]2CC[C@@H](O2)[C@@H](C)C(=O)O1`, the TGI (ACHN renal) is reported as 2.45 µM, the TGI (CAKI-1 renal) is reported as 12.8 µM and the TGI (HCC-2998 colon) is reported as > 27.8 µM. The TGI (HOP-62 NSCLC) was 4.78 µM, the TGI (HT29 colon) was 15.7 µM and the TGI (MOLT-4 leukemia) was 22 µM. The TGI (NCI-H226 lung) was > 93.5 µM, the TGI (OVCAR-5 ovarian) was > 100 µM and the TGI (SF-268 CNS) was > 51.4 µM.

Work on `CC#C[C@]1(O)CC[C@H]2[C@@H]3CCC4=CC(=O)CCC4=C3[C@@H](c3ccc4c(c3)OCO4)C[C@@]21C` yielded a GI50 (ACHN renal) of 47.4 µM, a TGI (ACHN renal) of 633 µM and a GI50 (HCC-2998 colon) of 174 µM. The TGI (HCC-2998 colon) was 572 µM, the GI50 (HOP-62 NSCLC) was 120 µM and the TGI (HOP-62 NSCLC) was 400 µM. For the same compound, the GI50 (HT29 colon) was 225 µM, the TGI (HT29 colon) was > 1000 µM and the GI50 (MOLT-4 leukemia) was 49.5 µM. For the same compound, the TGI (MOLT-4 leukemia) was > 1000 µM, the GI50 (NCI-H226 lung) was 140 µM and the TGI (NCI-H226 lung) was 617 µM. For the same compound, the GI50 (OVCAR-5 ovarian) was 236 µM, the TGI (OVCAR-5 ovarian) was > 1000 µM and the GI50 (SF-268 CNS) was 79.1 µM. It also gave a TGI (SF-268 CNS) of 481 µM, a GI50 (SNB-75 CNS) of 42.8 µM and a TGI (SNB-75 CNS) of 521 µM.
